Data on 11 compounds can be found in patent publication US20230346820A1, “METHODS AND COMPOSITIONS FOR THE TREATMENT OF SARS-COV-2” (priority 2020, published 2023).

Series [1] relates to SARS-CoV-2. Nature of the series: microbe, parasite or virus in culture. As to conditions: Severe acute respiratory syndrome coronavirus 2, Calu-3, 48 h, read-out: Calu-3 CoV-2 EC50 [μM].
Series [2] is described as follows: in vitro. The conditions noted are these: human.
In series [3] the test system is SARS-CoV-2.
A short description of series [4]: in vitro. The conditions noted are these: human. The source holds these as a separate data set.
Series [5] has as its system SARS-CoV-2. Nature of the series: microbe, parasite or virus in culture.
Series [6] has as its system SARS-CoV-2. The source holds these as a separate data set.
Where [7] appears, read: Severe acute respiratory syndrome coronavirus 2, HeLa-ACE2, read-out: HeLa-ACE2 CoV-2 EC50 [μM].
[8] abbreviates: HeLa-ACE2 Uninfected Tox CC50 [μM], Table 4, aggregated data, Geomean, n = 3.
Where [9] appears, read: Severe acute respiratory syndrome coronavirus 2, HeLa-ACE2, read-out: HeLa-ACE2 CoV-2 EC50 [μM], Table 4, aggregated data, Geomean, n = 3.

Like-named read-outs stand apart in the source and are kept apart here.

As usually defined, the EC50 is the midpoint of the concentration-response curve. As to `CO[C@H]1[C@@H](O)C[C@H](O[C@H]2[C@@H](O)C[C@H](O[C@H]3[C@@H](O)C[C@H](O[C@H]4CC[C@@]5(C)[C@H](CC[C@@H]6[C@@H]5C[C@@H](O)[C@]5(C)[C@@H](C7=CC(=O)OC7)CC[C@]65O)C4)O[C@@H]3C)O[C@@H]2C)O[C@@H]1C` [Metildigoxin], the EC50 worked out at 0.399 µM in series [1] and 0.284 µM in series [5] (setting [7]). The CC50 in series [2] was determined as 0.159 µM. For the same compound, the “HeLa-ACE2 SI CC50/CoV-2 EC50” value in series [3] (Table 4) worked out at 0.56. Besides, the CC50 at 48 h in series [4] came out at 1240 nM. Besides, in series [6] (Table 4), the “Calu3 SI CC50/CoV-2 EC50” value turned out to be 6.22.

Regarding `COC(=O)[C@@]12OC[C@]34[C@H]([C@@H](O)[C@@H]1O)[C@@]1(C)CC(=O)C(O)=C(C)[C@@H]1C[C@H]3OC(=O)[C@H](OC(=O)/C=C(\C)C(C)C)[C@@H]24` [Bruceantin], the concentration giving a half-maximal response (EC50) in series [1] was found to be 0.019 µM; in series [5] (setting [9]), 0.006 µM. The CC50 turned out to be 0.117 µM in series [2] (setting [8]) and 973 nM in series [4]. Further, the “HeLa-ACE2 SI CC50/CoV-2 EC50” value in series [3] (Table 4) came out at 20.18. The “Calu3 SI CC50/CoV-2 EC50” value in series [6] (Table 4) amounted to 50.22.

As for `COc1ccc2c(c1)c(CC(=O)NO)c(C)n2C(=O)c1ccc(Cl)cc1` [oxametacin], the EC50 in series [1] is 3.56 µM; in series [5] (setting [7]), 9.14 µM. Further, the figures for the CC50 in series [2] (HeLa-ACE2 Uninfected Tox CC50 [μM]) and in series [4] were 5.87 µM and 17700 nM, respectively. Besides, the “HeLa-ACE2 SI CC50/CoV-2 EC50” value in series [3] came to 0.64. The “Calu3 SI CC50/CoV-2 EC50” value in series [6] came to 4.98.

As to `CC1OC(O[C@H]2CC[C@@]3(C=O)[C@H](CC[C@@H]4[C@@H]3CC[C@]3(C)[C@@H](C5=CC(=O)OC5)CC[C@]43O)C2)C(O)C(O)C1O` (stereo partly shown) [Peruvoside (analog)], the EC50 in series [1] worked out at 0.251 µM; in series [5] (setting [9]), 0.246 µM. Further, the CC50 in series [2] (setting [8]) came to 0.345 µM; in series [4], 1410 nM. Further, the “HeLa-ACE2 SI CC50/CoV-2 EC50” value in series [3] (Table 4) is given as 1.40. For the same compound, the “Calu3 SI CC50/CoV-2 EC50” value in series [6] (Table 4) is 5.61.

On to `C=C(C)[C@]12C[C@@H](C)[C@@]34O[C@](Cc5ccccc5)(O[C@@H]1[C@@H]3C=C(COC(=O)Cc1ccc(O)c(OC)c1)C[C@]1(O)C(=O)C(C)=C[C@@H]41)O2` [Resiniferatoxin], for which the EC50 in series [1] was 0.903 µM; in series [5] (setting [7]) it was 1.3 µM. Also, the CC50 in series [2] turned out to be 7.17 µM. Besides, the “HeLa-ACE2 SI CC50/CoV-2 EC50” value in series [3] (Table 4) stood at 5.53. In series [4], this compound gave a CC50 at 48 h of 17300 nM. For the same compound, the “Calu3 SI CC50/CoV-2 EC50” value in series [6] (Table 4) is 19.13.

In the case of `O=c1[nH]c(=O)n([C@@H]2O[C@H](CO)[C@@H](O)[C@H]2O)cc1F` [Analog of OGT-719], the concentration giving a half-maximal response (EC50) in series [1] was determined as 1.17 µM; in series [5] (setting [9]), 4.02 µM. Besides, the CC50 in series [2] (setting [8]) worked out at 0.109 µM; in series [4], 8730 nM. For the same compound, the “HeLa-ACE2 SI CC50/CoV-2 EC50” value in series [3] (Table 4) was determined as 0.03. The “Calu3 SI CC50/CoV-2 EC50” value in series [6] (Table 4) stood at 7.44.

Take `C#C[C@]1(O)CC[C@H]2[C@@H]3CCc4cc(OS(=O)(=O)C(C)C)ccc4[C@H]3CC[C@@]21C` [ethinyl estradiol sulfonate]: the EC50 in series [1] is 1.23 µM; in series [5] (setting [9]) it was more than 9.59 µM. For the same compound, the CC50 in series [2] (setting [8]) came to 20.4 µM; in series [4], 6860 nM. Also, the “Calu3 SI CC50/CoV-2 EC50” value in series [6] (Table 4) turned out to be 5.59.

Turning to `CC(=O)O[C@H]1C[C@H](O[C@H]2[C@@H](O)C[C@H](O[C@H]3[C@@H](O)C[C@H](O[C@H]4CCC5(C)[C@H](CC[C@@H]6[C@@H]5CCC5(C)[C@@H](C7=CC(=O)OC7)[C@@H](O)CC65O)C4)O[C@@H]3C)O[C@@H]2C)O[C@H](C)[C@H]1O[C@@H]1O[C@H](CO)[C@@H](O)[C@H](O)[C@H]1O` (stereo partly shown) [[…]], the EC50 in series [1] was determined as 0.688 µM; in series [5] (setting [9]), 0.803 µM. The CC50 was found to be 1.75 µM in series [2] (setting [8]) and 3370 nM in series [4]. Besides, in series [3] (Table 4), the “HeLa-ACE2 SI CC50/CoV-2 EC50” value was found to be 2.175. Moreover, the “Calu3 SI CC50/CoV-2 EC50” value in series [6] (Table 4) is on record as 4.90.

Regarding `COC1CC(OC2CCC3(C=O)[C@H]4CCC5(C)C(C6=CC(=O)OC6)CCC5(O)[C@@H]4CCC3(O)C2)OC(C)C1O` (stereo partly shown) [CYMARINE], the concentration giving a half-maximal response (EC50) worked out at 0.135 µM in series [1] and 0.237 µM in series [5] (setting [9]). Moreover, the CC50 in series [2] (setting [8]) stood at 0.287 µM; in series [4] it was 5870 nM. Besides, the “HeLa-ACE2 SI CC50/CoV-2 EC50” value in series [3] (Table 4) turned out to be 1.21. The “Calu3 SI CC50/CoV-2 EC50” value in series [6] (Table 4) was 43.53.

As for `CCCCCCCC/C=C/CCCCCCCC(=O)OC[C@H]1O[C@@H](n2ccc(N)nc2=O)C(F)(F)[C@@H]1O` [Gemcitabine elaidate], the EC50 was 0.324 µM in series [1] and more than 9.59 µM in series [5] (setting [9]). Besides, the CC50 in series [2] (setting [8]) was 6.01 µM; in series [4], more than 29900 nM. For the same compound, in series [6] (Table 4), the “Calu3 SI CC50/CoV-2 EC50” value is more than 92.

Consider `CNC(=O)n1ccc2cc(Oc3ccnc(NC(=O)c4ccc(C5CCN(CCO)CC5)cc4)c3)c(OCCOC)cc21` [E-7090], for which the EC50 is 0.753 µM in series [1] and 2.65 µM in series [5] (setting [9]). The CC50 in series [2] (setting [8]) turned out to be 21.2 µM; in series [4] it was 15000 nM. For the same compound, the “HeLa-ACE2 SI CC50/CoV-2 EC50” value in series [3] (Table 4) is on record as 8.01. In addition, the “Calu3 SI CC50/CoV-2 EC50” value in series [6] (Table 4) is reported as 19.88.
